Reference: patent US7491794B2, “Macrocyclic compounds as inhibitors of viral replication” (Intermune, Inc., priority 2003, dated 2009)
Where a name gives a salt, the structure may show the parent alone. Each block holds one compound with its values, some of them ahead of it.

Biological target: T1, NS3-NS4A protease (Hepatitis C virus genotype 1a, UniProt P27958)
T1 construct: Recombinant E. coli or Baculovirus full-length NS3 was diluted to 3.33 μM with assay buffer; made in house; host or cells: E. coli or baculovirus (BV) system
Assay: NS3-NS4A protease assay (NS3 inhibition assay, RETS1 substrate), Section B
Type: biochemical
Settings: read-out: NS3-NS4A IC50
Procedure: NS3 complex formation with NS4A-2
Recombinant E. coli or Baculovirus full-length NS3 was diluted to 3.33 μM with assay buffer and the material transferred to an eppendorf tube and place in water bath in 4° C. refrigerator. The appropriate amount of NS4A-2 to 8.3 mM in assay buffer was added to equal the volume of NS3 in step 2.1.1 (conversion factor −3.8 mg/272 μL assay buffer). The material was transferred to an eppendorf tube and placed in a water bath in a 4° C. refrigerator.
After equilibration to 4° C., equal volumes of NS3 and NS4A-2 solutions were combined in an eppendorf tube, mixed gently with a manual pipettor, and the mixture incubated for 15 minutes in the 4° C. water bath. Final concentrations in the mixture were 1.67 μM NS3, 4.15 mM NS4A-2 (2485-fold molar excess NS4A-2).
After 15 minutes at 4° C., the NS3/NS4A-2 eppendorf tube was removed and placed in a room temperature water bath for 10 minutes. NS3/NS4A-2 was aliquoted at appropriate volumes and store at −80° C. (E. coli NS3 run at 2 nM in assay, aliquot at 25 μL. BV NS3 run at 3 nM in assay, aliquot at 30 μL.
Step 2.2.5. Sample compounds were dissolved to 10 mM in DMSO then diluted to 2.5 mM (1:4) in DMSO.
Step 2.2.6. The E. coli NS3/NS4A-2 was diluted to 4 nM NS3 (1:417.5 of 1.67 μM stock−18 μL 1.67 μM stock+7497 μL assay buffer).
The BV NS3/NS4A-2 was diluted to 6 nM NS3 (1:278.3 of 1.67 μM stock−24 μL 1.67 μM stock+6655 μL assay buffer).
Step 2.2.7. Using the manual multichannel pipettor, and being careful not to introduce bubbles into the plate, 50 μL assay buffer was added to wells A01-H01 of a black Costar 96-well polypropylene storage plate.
Step 2.2.8. Using the manual multichannel pipettor, and being careful not to introduce bubbles into the plate, 50 μL of diluted NS3/NS4A-2 from step 2.2.6 was added to wells A02-H12 of plate in step 2.2.7.
Step 2.2.9. Using the manual multichannel pipettor, and being careful not to introduce bubbles into the plate, 25 μL of the wells in drug dilution plate in step 2.2.5 were transferred to corresponding wells in assay plate in step 2.2.8. The tips on multichannel pipettor were changed for each row of compounds transferred.
Step 2.2.10. Using the manual multichannel pipettor, and being careful not to introduce bubbles into the plate, the wells from the assay plate in step 2.2.9 were mixed by aspirating and dispensing 35 μL of the 75 μL in each well five times. The tips on multichannel pipettor were changed for each row of wells mixed.
Step 2.2.11. The plate was covered with a polystyrene plate lid, and the plate from step 2.2.10 containing NS3 protease and sample compounds was pre-incubated 10 minutes at room temperature.
While the plate from step 2.2.11 was pre-incubating, the RETS1 substrate was diluted in a 15 mL polypropylene centrifuge tube. The RETS1 substrate was diluted to 8 μM (1:80.75 of 646 μM stock−65 μL 646 μM stock+5184 μL assay buffer).
After the plate in step 2.2.11 was done pre-incubating, and using the manual multichannel, 25 μL of substrate was added to all wells on the plate. The contents of the wells were quickly mixed, as in step 2.2.10, but mixing 65 μL of the 100 μL in the wells.
The plate was read in kinetic mode on the Molecular Devices SpectraMax Gemini XS plate reader. Reader settings: Read time: 30 minutes, Interval: 36 seconds, Reads: 51, Excitation λ: 335 nm, Emission λ: 495 nm, cutoff: 475 nm, Automix: off, Calibrate: once, PMT: high, Reads/well: 6, Vmax pts: 21 or 28/51 depending on length of linearity of reaction.
IC50s were determined using a four parameter curve fit equation, and converted to Ki's using the following Km's:
where Ki=IC50/(1+[S]/Km))

T1 sequence (P27958 1027-1657): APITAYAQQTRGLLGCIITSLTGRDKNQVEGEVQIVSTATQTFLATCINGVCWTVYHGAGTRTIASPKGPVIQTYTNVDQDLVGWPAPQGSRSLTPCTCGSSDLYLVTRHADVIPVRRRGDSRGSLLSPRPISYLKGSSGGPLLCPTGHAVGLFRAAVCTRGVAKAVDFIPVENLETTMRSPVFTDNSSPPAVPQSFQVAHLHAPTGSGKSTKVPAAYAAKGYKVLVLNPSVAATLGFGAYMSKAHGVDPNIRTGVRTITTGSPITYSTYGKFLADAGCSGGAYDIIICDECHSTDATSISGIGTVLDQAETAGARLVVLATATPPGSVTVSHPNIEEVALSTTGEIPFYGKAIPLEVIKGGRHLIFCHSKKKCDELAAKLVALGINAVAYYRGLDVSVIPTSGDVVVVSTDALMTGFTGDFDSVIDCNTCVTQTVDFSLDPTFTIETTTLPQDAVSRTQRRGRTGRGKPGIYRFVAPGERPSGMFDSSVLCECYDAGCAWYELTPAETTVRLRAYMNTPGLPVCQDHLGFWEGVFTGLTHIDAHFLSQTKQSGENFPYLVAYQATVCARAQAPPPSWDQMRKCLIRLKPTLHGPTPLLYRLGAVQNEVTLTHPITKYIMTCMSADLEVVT

Compound: CN(C)CC1c2ccccc2CCN1C(=O)O[C@@H]1C[C@H]2C(=O)N[C@]3(C(=O)O)C[C@H]3/C=C\CCCCC[C@H](NC(=O)OC(C)(C)C)C(=O)N2C1 (stereo partly drawn) [AR00333224, (1S,4R,6S,14S,18R)-14-tert-Butoxycarbonylamino-18-(1-dimethylaminomethyl-3,4-dihydro-1H-isoquinoline-2-carbonyloxy)-2,15-dioxo-3,16-diaza-tricyclo[14.3.0.0^4,6]nonadec-7-ene-4-carboxylic acid]
IC50: < 10000 nM

Compound: CC(C)(C)OC(=O)N[C@H]1CCCCC/C=C\[C@@H]2C[C@@]2(C(=O)O)NC(=O)[C@@H]2C[C@@H](OC(=O)N3CCc4ccccc4C3CN3CCOCC3)CN2C1=O (stereo partly drawn) [AR00333225, (1S,4R,6S,14S,18R)-14-tert-Butoxycarbonylamino-18-(1-morpholin-4-ylmethyl-3,4-dihydro-1H-isoquinoline-2-carbonyloxy)-2,15-dioxo-3,16-diaza-tricyclo[14.3.0.0^4,6]nonadec-7-ene-4-carboxylic acid]
IC50: < 10000 nM

Compound: COc1ccc2c(c1)CCN(C(=O)O[C@@H]1C[C@H]3C(=O)N[C@]4(C(=O)O)C[C@H]4/C=C\CCCCC[C@H](NC(=O)OC(C)(C)C)C(=O)N3C1)C2CN1CCCCC1 (stereo partly drawn) [AR00333248, (1S,4R,6S,14S,18R)-14-tert-Butoxycarbonylamino-18-(6-methoxy-1-piperidin-1-ylmethyl-3,4-dihydro-1H-isoquinoline-2-carbonyloxy)-2,15-dioxo-3,16-diaza-tricyclo[14.3.0.0^4,6]nonadec-7-ene-4-carboxylic acid]
IC50: < 10000 nM

Compound: COc1ccc2c(c1)CCN(C(=O)O[C@@H]1C[C@H]3C(=O)N[C@]4(C(=O)O)C[C@H]4/C=C\CCCCC[C@H](NC(=O)OC(C)(C)C)C(=O)N3C1)C2CN1CCOCC1 (stereo partly drawn) [AR00333276, (1S,4R,6S,14S,18R)-14-tert-Butoxycarbonylamino-18-(6-methoxy-1-morpholin-4-ylmethyl-3,4-dihydro-1H-isoquinoline-2-carbonyloxy)-2,15-dioxo-3,16-diaza-tricyclo[14.3.0.0^4,6]nonadec-7-ene-4-carboxylic acid]
IC50: < 10000 nM

Compound: COc1ccc2c(c1)CCN(C(=O)O[C@@H]1C[C@H]3C(=O)N[C@]4(C(=O)O)C[C@H]4/C=C\CCCCC[C@H](NC(=O)OC(C)(C)C)C(=O)N3C1)C2CN(C)C (stereo partly drawn) [AR00333277, (1S,4R,6S,14S,18R)-14-tert-Butoxycarbonylamino-18-(1-dimethylaminomethyl-6-methoxy-3,4-dihydro-1H-isoquinoline-2-carbonyloxy)-2,15-dioxo-3,16-diaza-tricyclo[14.3.0.0^4,6]nonadec-7-ene-4-carboxylic acid]
IC50: < 10000 nM

Compound: CC(C)(C)OC(=O)N[C@H]1CCCCC/C=C\[C@@H]2C[C@@]2(C(=O)NS(=O)(=O)c2cc(C(=O)O)ccc2Cl)NC(=O)[C@@H]2C[C@@H](OC(=O)N3Cc4ccccc4C3)CN2C1=O [AR00365388, (1S,4R,6S,14S,18R)-1,3-Dihydro-isoindole-2-carboxylic acid 14-tert-butoxycarbonylamino-4-(5-carboxy-2-chloro-benzenesulfonylaminocarbonyl)-2,15-dioxo-3,16-diaza-tricyclo[14.3.0.0^4,6]nonadec-7-en-18-yl ester]
IC50: < 100 nM

Compound: COc1ccc(S(=O)(=O)NC(=O)[C@@]23C[C@H]2/C=C\CCCCC[C@H](NC(=O)OC(C)(C)C)C(=O)N2C[C@H](OC(=O)N4Cc5ccccc5C4)C[C@H]2C(=O)N3)cc1C(=O)O [AR00365425, (1S,4R,6S,14S,18R)-1,3-Dihydro-isoindole-2-carboxylic acid 14-tert-butoxycarbonylamino-4-(3-carboxy-4-methoxy-benzenesulfonylaminocarbonyl)-2,15-dioxo-3,16-diaza-tricyclo[14.3.0.0^4,6]nonadec-7-en-18-yl ester]
IC50: < 100 nM

Compound: CC(C)(C)OC(=O)N[C@H]1CCCCC/C=C\[C@@H]2C[C@@]2(C(=O)O)NC(=O)[C@@H]2C[C@@H](OC(=O)N3Cc4ccc(OCCN5CCOCC5)cc4C3)CN2C1=O [AR00371946, (1S,4R,6S,14S,18R)-14-tert-Butoxycarbonylamino-18-[5-(2-morpholin-4-yl-ethoxy)-1,3-dihydro-isoindole-2-carbonyloxy]-2,15-dioxo-3,16-diaza-tricyclo[14.3.0.0^4,6]nonadec-7-ene-4-carboxylic acid]
IC50: < 100 nM

Compound: CN(C)CCOc1ccc2c(c1)CN(C(=O)O[C@@H]1C[C@H]3C(=O)N[C@]4(C(=O)O)C[C@H]4/C=C\CCCCC[C@H](NC(=O)OC(C)(C)C)C(=O)N3C1)C2 [AR00371947, (1S,4R,6S,14S,18R)-14-tert-Butoxycarbonylamino-18-[5-(2-dimethylamino-ethoxy)-1,3-dihydro-isoindole-2-carbonyloxy]-2,15-dioxo-3,16-diaza-tricyclo[14.3.0.0^4,6]nonadec-7-ene-4-carboxylic acid]
IC50: < 1000 nM

Compound: CC(C)NCCOc1ccc2c(c1)CN(C(=O)O[C@@H]1C[C@H]3C(=O)N[C@]4(C(=O)O)C[C@H]4/C=C\CCCCC[C@H](NC(=O)OC(C)(C)C)C(=O)N3C1)C2 [AR00371948, (1S,4R,6S,14S,18R)-14-tert-Butoxycarbonylamino-18-[5-(2-isopropylamino-ethoxy)-1,3-dihydro-isoindole-2-carbonyloxy]-2,15-dioxo-3,16-diaza-tricyclo[14.3.0.0^4,6]nonadec-7-ene-4-carboxylic acid]
IC50: < 100 nM

IC50: < 100 nM
Compound: COCC1c2cccc(F)c2CCN1C(=O)O[C@@H]1C[C@H]2C(=O)N[C@]3(C(=O)NS(=O)(=O)C4CC4)C[C@H]3/C=C\CCCCC[C@H](N)C(=O)N2C1 (stereo partly drawn) [AR00424775, (1S,4R,6S,14S,18R)-5-Fluoro-1-methoxymethyl-3,4-dihydro-1H-isoquinoline-2-carboxylic acid 14-amino-4-cyclopropanesulfonylaminocarbonyl-2,15-dioxo-3,16-diaza-tricyclo[14.3.0.0^4,6]nonadec-7-en-18-yl ester, HCl salt]

IC50: < 100 nM
Compound: N[C@H]1CCCCC/C=C\[C@@H]2C[C@@]2(C(=O)NS(=O)(=O)C2CC2)NC(=O)[C@@H]2C[C@@H](OC(=O)N3Cc4cccc(F)c4C3)CN2C1=O [AR00424874, (1S,4R,6S,14S,18R)-4-Fluoro-1,3-dihydro-isoindole-2-carboxylic acid 14-amino-4-cyclopropanesulfonylaminocarbonyl-2,15-dioxo-3,16-diaza-tricyclo[14.3.0.0^4,6]nonadec-7-en-18-yl ester, HC1 salt]
